Assay results from PubChem BioAssay AID248 (DTP/NCI, 2004).
Toxic doses and inconclusive results are not listed. Rule as the data show it: active = T/C of 150% or more; inactive = T/C below 125%.

Test system: L1210 leukemia ip in BDF1 mice, survival T/C
Experiment: NCI In Vivo Anticancer Drug Screen. Data for tumor model L1210 Leukemia (intraperitoneal) in B6D2F1 (BDF1) mice
Settings: endpoint: mean survival time, higher = longer survival
In short: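 Tumor was transplanted into mice, which were then dosed with test compound or vehicle alone. Survival was recorded for each group, and the treated figure was expressed relative to the control figure.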

[1] = dose: 100.0 mg/kg/injection, schedule: Q04DX003 (ip), vehicle: saline with Tween-80
[2] = dose: 200.0 mg/kg/injection, schedule: Q04DX003 (ip), vehicle: saline with Tween-80
[3] = dose: 400.0 mg/kg/injection, schedule: Q04DX003 (ip), vehicle: saline with Tween-80
[4] = dose: 100.0 mg/kg/injection, schedule: Q01DX009 (ip), vehicle: Klucel (hydroxypropylcellulose) (HPC)
[5] = dose: 100.0 mg/kg/injection, schedule: Q04DX003 (ip), vehicle: Klucel (hydroxypropylcellulose) (HPC)
[6] = dose: 200.0 mg/kg/injection, schedule: Q01DX009 (ip), vehicle: Klucel (hydroxypropylcellulose) (HPC)
[7] = dose: 200.0 mg/kg/injection, schedule: Q04DX003 (ip), vehicle: Klucel (hydroxypropylcellulose) (HPC)
[8] = dose: 400.0 mg/kg/injection, schedule: Q01DX009 (ip), vehicle: Klucel (hydroxypropylcellulose) (HPC)
[9] = dose: 400.0 mg/kg/injection, schedule: Q04DX003 (ip), vehicle: Klucel (hydroxypropylcellulose) (HPC)
[10] = dose: 100.0 mg/kg/injection, schedule: Q01DX001 (ip), vehicle: saline with Tween-80
[11] = dose: 200.0 mg/kg/injection, schedule: Q01DX001 (ip), vehicle: saline with Tween-80
[12] = dose: 400.0 mg/kg/injection, schedule: Q01DX001 (ip), vehicle: saline with Tween-80
[13] = dose: 100.0 mg/kg/injection, schedule: Q04DX003 (ip), vehicle: saline
[14] = dose: 200.0 mg/kg/injection, schedule: Q04DX003 (ip), vehicle: saline
[15] = dose: 400.0 mg/kg/injection, schedule: Q04DX003 (ip), vehicle: saline
[16] = dose: 100.0 mg/kg/injection, schedule: Q01DX001 (ip), vehicle: carboxymethylcellulose (CMC)
[17] = dose: 200.0 mg/kg/injection, schedule: Q01DX001 (ip), vehicle: carboxymethylcellulose (CMC)
[18] = dose: 400.0 mg/kg/injection, schedule: Q01DX001 (ip), vehicle: carboxymethylcellulose (CMC)
[19] = dose: 100.0 mg/kg/injection, schedule: Q01DX009 (ip), vehicle: saline with Tween-80
[20] = dose: 200.0 mg/kg/injection, schedule: Q01DX009 (ip), vehicle: saline with Tween-80
[21] = dose: 400.0 mg/kg/injection, schedule: Q01DX009 (ip), vehicle: saline with Tween-80

Measured: T/C

CCOC(=O)c1cnc(SC)nc1NCc1ccc(Cl)c(Cl)c1
inactive: [1] 94 % of control | [2] 102 % of control | [3] 96 % of control

C/C(=N\O)C1(O)CCCCC1
inactive: [4] 98 % of control | [5] 103 % of control | [6] 93 % of control | [7] 101 % of control | [8] 96 % of control | [9] 108 % of control

CCCCCCCC#N
inactive: [10] 92 % of control | [11] 97 % of control | [12] 105 % of control

N#CCC(=O)c1ccccc1
inactive: dose: 12.5 mg/kg/injection, schedule: Q01DX009 (ip), vehicle: Klucel (hydroxypropylcellulose) (HPC) 113 % of control | dose: 18.75 mg/kg/injection, schedule: Q04DX003 (ip), vehicle: gum acacia 106 % of control | dose: 25.0 mg/kg/injection, schedule: Q01DX009 (ip), vehicle: Klucel (hydroxypropylcellulose) (HPC) 102 % of control | dose: 37.5 mg/kg/injection, schedule: Q04DX003 (ip), vehicle: gum acacia 108 % of control | dose: 50.0 mg/kg/injection, schedule: Q01DX009 (ip), vehicle: Klucel (hydroxypropylcellulose) (HPC) 104 % of control

O=NN1C(=O)N(CCCl)C(=O)C1(c1ccccc1)c1ccccc1
inactive: [13] 96 % of control | [14] 97 % of control | [15] 102 % of control

COCC1OC(n2cnc3c(N(C)C)ncnc32)C(OC)C1OC (centres undefined)
inactive: dose: 50.0 mg/kg/injection, schedule: Q01DX005 (ip), vehicle: saline 112 % of control | dose: 100.0 mg/kg/injection, schedule: Q01DX005 (ip), vehicle: saline 102 % of control | dose: 200.0 mg/kg/injection, schedule: Q01DX005 (ip), vehicle: saline 96 % of control

O=c1[nH]c(=O)n(Cc2ccccc2)cc1Cc1ccccc1
inactive: [1] 106 % of control | [2] 98 % of control | [3] 101 % of control

CC1CC(=O)C(CN(C)C)C(C)(C)C1 (centres undefined)
inactive: dose: 75.0 mg/kg/injection, schedule: Q01DX001 (ip), vehicle: saline 106 % of control | dose: 150.0 mg/kg/injection, schedule: Q01DX001 (ip), vehicle: saline 100 % of control

CCCCC(=O)N/N=C/c1c[nH]c2ccc(Br)cc12
inactive: [16] 88 % of control | [17] 93 % of control | [18] 93 % of control

Cc1ccc(S(=O)(=O)N2CCC=Cc3ccccc32)cc1
inactive: [16] 110 % of control | [17] 102 % of control | [18] 107 % of control

O=C(Nc1ccc([N+](=O)[O-])cc1)Nc1ccc([N+](=O)[O-])cc1 (tested in a mixture with another compound)
inactive: [5] 89 % of control | dose: 200.0 mg/kg/injection, schedule: Q01DX009 (ip), vehicle: saline 98 % of control | [7] 100 % of control | dose: 400.0 mg/kg/injection, schedule: Q01DX009 (ip), vehicle: saline 88 % of control | [9] 89 % of control

Nc1nc(N)c(-c2cccc(Cl)c2)c(CBr)n1
inactive: dose: 12.5 mg/kg/injection, schedule: Q01DX009 (ip), vehicle: saline 101 % of control | dose: 25.0 mg/kg/injection, schedule: Q01DX009 (ip), vehicle: saline 102 % of control | dose: 50.0 mg/kg/injection, schedule: Q01DX009 (ip), vehicle: saline 104 % of control

COC1=C(Br)C(=O)c2ncccc2C1=O
inactive: dose: 5.0 mg/kg/injection, schedule: Q01DX001 (ip), vehicle: carboxymethylcellulose (CMC) 104 % of control | dose: 20.0 mg/kg/injection, schedule: Q01DX001 (ip), vehicle: carboxymethylcellulose (CMC) 94 % of control

COC(=O)C1=CNC=C(C(=O)OC)C1c1ccc(OC)cc1
inactive: [1] 95 % of control | [2] 96 % of control | [3] 95 % of control

CSc1ccc(Sc2cccc3c2C(=O)c2c(cccc2Sc2ccc(SC)cc2)C3)cc1
inactive: [19] 90 % of control | [20] 92 % of control | [21] 103 % of control

CCCCSc1nc2ccccc2[nH]1
inactive: [10] 93 % of control | [1] 93 % of control | [11] 104 % of control | [2] 97 % of control | [12] 104 % of control | [3] 100 % of control

COc1ccc(NC(=O)Nc2c(C)cc(C)cc2C)cc1
inactive: dose: 100.0 mg/kg/injection, schedule: Q01DX009 (ip), vehicle: gum acacia 94 % of control | dose: 100.0 mg/kg/injection, schedule: Q04DX003 (ip), vehicle: gum acacia 93 % of control | dose: 200.0 mg/kg/injection, schedule: Q01DX009 (ip), vehicle: gum acacia 96 % of control | dose: 200.0 mg/kg/injection, schedule: Q04DX003 (ip), vehicle: gum acacia 95 % of control | dose: 400.0 mg/kg/injection, schedule: Q01DX009 (ip), vehicle: gum acacia 98 % of control | dose: 400.0 mg/kg/injection, schedule: Q04DX003 (ip), vehicle: gum acacia 87 % of control

Cn1c2ccc3c(c2c(=O)c2ccoc21)C=CC(C)(C)O3
inactive: dose: 50.0 mg/kg/injection, schedule: Q01DX001 (ip), vehicle: carboxymethylcellulose (CMC) 98 % of control | [16] 98 % of control | [17] 91 % of control | [18] 98 % of control

CC1(C)OC2OC(C(O)CO)C(O)C2O1 (centres undefined) (tested in a mixture with another compound)
inactive: dose: 12.5 mg/kg/injection, schedule: Q04DX002 (ip), vehicle: saline 100 % of control | dose: 25.0 mg/kg/injection, schedule: Q04DX002 (ip), vehicle: saline 95 % of control | dose: 50.0 mg/kg/injection, schedule: Q04DX002 (ip), vehicle: saline 95 % of control

CCOC(=O)OCCCN(C)C
inactive: [19] 94 % of control | [1] 100 % of control | [20] 94 % of control | [2] 93 % of control | [21] 90 % of control | [3] 96 % of control

CCN(CC)CCOCCO
inactive: [13] 96 % of control | [14] 102 % of control | [15] 109 % of control

CCOC(OCC)c1cc(=O)[nH]c(N)n1
inactive: [4] 101 % of control | [6] 97 % of control | [8] 96 % of control

OC(c1ccccc1)(c1ccccc1)C1C(=C(c2ccccc2)c2ccccc2)C1c1ccccc1 (centres undefined)
inactive: dose: 100.0 mg/kg/injection, schedule: Q01DX001 (ip), vehicle: steriod suspending solution 104 % of control | dose: 200.0 mg/kg/injection, schedule: Q01DX001 (ip), vehicle: steriod suspending solution 93 % of control | dose: 400.0 mg/kg/injection, schedule: Q01DX001 (ip), vehicle: steriod suspending solution 95 % of control

O=C(c1ccccn1)c1nnn2ccccc12
inactive: dose: 100.0 mg/kg/injection, schedule: Q04DX002 (ip), vehicle: saline with Tween-80 91 % of control | dose: 200.0 mg/kg/injection, schedule: Q04DX002 (ip), vehicle: saline with Tween-80 87 % of control

COc1ccc(CNc2ncccn2)cc1
inactive: [5] 102 % of control | [7] 102 % of control | [9] 107 % of control
